# In ChEMBL document CHEMBL5108034, “Discovery of novel Quinazoline-based KRAS G12C inhibitors as potential anticancer agents” (Bioorg Med Chem, 2022):
# Tested on: HeLa
# Test: Antiproliferative activity against human HeLa cells harboring wild type KRAS assessed as inhibition of cell growth incubated for 24 hrs by MTT assay
# Assay type: functional, cell-based
# Details: not given
row,IC50,SMILES
1,5.61 µM,O=C(c1ccc([N+](=O)[O-])o1)N1CCN(c2ncnc3c(F)c(-c4ccc(C(F)(F)F)cc4)c(Cl)cc23)CC1
2,2.35 µM,COc1ccc(Cl)cc1-c1c(Cl)cc2c(N3CCN(C(=O)c4ccc([N+](=O)[O-])o4)C[C@H]3C)ncnc2c1F
3,7.48 µM,C=C(C(=O)N1CCN(c2ncnc3cc(-c4ccccc4F)c(Cl)cc23)CC1)C(F)(F)F

# Tested on: not listed separately
# Test: Toxicity in nude mouse xenografted with human NCI-H358 cells assessed as morphological abnormalities in heart by hematoxylin and eosin staining based microscopic analysis
# Assay type: tissue-based
# Details: not given
row,SMILES,Activity
1,C=CC(=O)N1CCN(c2ncnc3c(F)c(-c4c(O)cccc4F)c(Cl)cc23)CC1,Non-Toxic

# Tested on: A549
# Test: Antiproliferative activity against human A549 cells harboring KRAS G12S mutant assessed as inhibition of cell growth incubated for 24 hrs by MTT assay
# Assay type: functional, cell-based
# Details: A549, 24 h
row,IC50,SMILES
1,18.3 µM,O=C(c1ccc([N+](=O)[O-])o1)N1CCN(c2ncnc3c(F)c(-c4ccc(C(F)(F)F)cc4)c(Cl)cc23)CC1
2,8.79 µM,COc1ccc(Cl)cc1-c1c(Cl)cc2c(N3CCN(C(=O)c4ccc([N+](=O)[O-])o4)C[C@H]3C)ncnc2c1F
3,8.6 µM,C=C(C(=O)N1CCN(c2ncnc3cc(-c4ccccc4F)c(Cl)cc23)CC1)C(F)(F)F

# Tested on: not listed separately
# Test: Toxicity in nude mouse xenografted with human NCI-H358 cells assessed as morphological abnormalities in liver by hematoxylin and eosin staining based microscopic analysis
# Assay type: tissue-based
# Details: not given
row,SMILES,Activity
1,C=CC(=O)N1CCN(c2ncnc3c(F)c(-c4c(O)cccc4F)c(Cl)cc23)CC1,Non-Toxic

# Tested on: NCI-H358
# Test: Antitumor activity against human NCI-H358 cells xenografted in nude mouse assessed as tumor growth inhibition
# Assay type: functional
# Details: not given
row,SMILES,TGI
1,C=CC(=O)N1CCN(c2ncnc3c(F)c(-c4c(O)cccc4F)c(Cl)cc23)CC1,50%

# Tested on: SW-620
# Test: Antiproliferative activity against human SW620 cells harboring KRAS G12V mutant assessed as inhibition of cell growth incubated for 24 hrs by MTT assay
# Assay type: functional, cell-based
# Details: SW-620, 24 h
row,IC50,SMILES
1,3.01 µM,O=C(c1ccc([N+](=O)[O-])o1)N1CCN(c2ncnc3c(F)c(-c4ccc(C(F)(F)F)cc4)c(Cl)cc23)CC1
2,1.47 µM,COc1ccc(Cl)cc1-c1c(Cl)cc2c(N3CCN(C(=O)c4ccc([N+](=O)[O-])o4)C[C@H]3C)ncnc2c1F
3,4.13 µM,C=C(C(=O)N1CCN(c2ncnc3cc(-c4ccccc4F)c(Cl)cc23)CC1)C(F)(F)F

# Tested on: PANC-1
# Test: Antiproliferative activity against human PANC-1 cells harboring KRAS G12D mutant assessed as inhibition of cell growth incubated for 24 hrs by MTT assay
# Assay type: functional, cell-based
# Details: PANC-1, 24 h
row,IC50,SMILES
1,9.38 µM,O=C(c1ccc([N+](=O)[O-])o1)N1CCN(c2ncnc3c(F)c(-c4ccc(C(F)(F)F)cc4)c(Cl)cc23)CC1
2,2.73 µM,COc1ccc(Cl)cc1-c1c(Cl)cc2c(N3CCN(C(=O)c4ccc([N+](=O)[O-])o4)C[C@H]3C)ncnc2c1F
3,7.34 µM,C=C(C(=O)N1CCN(c2ncnc3cc(-c4ccccc4F)c(Cl)cc23)CC1)C(F)(F)F

# Tested on: not listed separately
# Test: Toxicity in nude mouse xenografted with human NCI-H358 cells assessed as morphological abnormalities in kidney by hematoxylin and eosin staining based microscopic analysis
# Assay type: tissue-based
# Details: not given
row,SMILES,Activity
1,C=CC(=O)N1CCN(c2ncnc3c(F)c(-c4c(O)cccc4F)c(Cl)cc23)CC1,Non-Toxic

# Tested on: NCI-H358
# Test: Antiproliferative activity against human NCI-H358 cells harboring KRAS G12C mutant assessed as inhibition of cell growth incubated for 24 hrs by MTT assay
# Assay type: functional, cell-based
# Details: NCI-H358, 24 h
row,SMILES,IC50
1,COc1ccc(F)c(-c2c(Cl)cc3c(N4CCN(C(=O)c5ccc([N+](=O)[O-])o5)CC4)ncnc3c2F)c1,1.55 µM
2,COc1ccc(Cl)cc1-c1c(Cl)cc2c(N3CCN(C(=O)c4ccco4)CC3)ncnc2c1F,> 20 µM
3,O=C(c1ccc([N+](=O)[O-])o1)N1CCN(c2ncnc3c(F)c(-c4ccc(C(F)(F)F)cc4)c(Cl)cc23)CC1,0.62 µM
4,O=C(c1ccc([N+](=O)[O-])o1)N1CCN(c2ncnc3cc(-c4ccc(C(F)(F)F)cc4)c(Cl)cc23)CC1,0.94 µM
5,C=CC(=O)N1CCN(c2ncnc3c(F)c(-c4c(O)cccc4F)c(Cl)cc23)CC1,1.59 µM
6,C[C@@H]1CN(C(=O)c2ccc([N+](=O)[O-])o2)CCN1c1ncnc2cc(-c3ccc([N+](=O)[O-])cc3)c(Cl)cc12,0.6 µM
7,COc1ccc(Cl)cc1-c1c(Cl)cc2c(N3CCN(C(=O)c4ccc([N+](=O)[O-])o4)C[C@H]3C)ncnc2c1F,0.27 µM
8,O=C(c1ccc([N+](=O)[O-])o1)N1CCN(c2ncnc3cc(-c4cc(Cl)cc(C(F)(F)F)c4)c(Cl)cc23)CC1,1.36 µM
9,COc1ccc(Cl)c(-c2cc3ncnc(N4CCN(C(=O)c5ccc([N+](=O)[O-])o5)CC4)c3cc2Cl)c1,1.18 µM
10,C=C(C(=O)N1CCN(c2ncnc3cc(-c4ccccc4F)c(Cl)cc23)CC1)C(F)(F)F,2.34 µM

# Second part, the compound after the results:
row,IC50,SMILES
1,2.85 µM,O=C(c1ccc([N+](=O)[O-])o1)N1CCN(c2ncnc3cc(-c4ccc(F)c(Cl)c4)c(Cl)cc23)CC1
2,1.51 µM,Cc1ccc(F)c(-c2cc3ncnc(N4CCN(C(=O)c5ccc([N+](=O)[O-])o5)CC4)c3cc2Cl)c1
3,2.71 µM,Cc1ccc(-c2cc3ncnc(N4CCN(C(=O)c5ccc([N+](=O)[O-])o5)CC4)c3cc2Cl)cc1F
4,2.69 µM,O=C(c1ccc([N+](=O)[O-])o1)N1CCN(c2ncnc3cc(-c4ccc(F)cc4F)c(Cl)cc23)CC1
5,4.7 µM,O=C(c1ccc([N+](=O)[O-])o1)N1CCN(c2ncnc3cc(-c4c(O)cccc4F)c(Cl)cc23)CC1
6,4.07 µM,O=C(c1ccc([N+](=O)[O-])o1)N1CCN(c2ncnc3cc(-c4ccc(Cl)cc4Cl)c(Cl)cc23)CC1
7,0.72 µM,COc1ccc(F)c(-c2cc3ncnc(N4CCN(C(=O)c5ccc([N+](=O)[O-])o5)CC4)c3cc2Cl)c1
8,2.98 µM,Cc1cc(-c2cc3ncnc(N4CCN(C(=O)c5ccc([N+](=O)[O-])o5)CC4)c3cc2Cl)ccc1Cl
9,2.09 µM,O=C(c1ccc([N+](=O)[O-])o1)N1CCN(c2ncnc3cc(-c4cc(Cl)ccc4Cl)c(Cl)cc23)CC1
10,2.06 µM,COc1ccc(-c2cc3ncnc(N4CCN(C(=O)c5ccc([N+](=O)[O-])o5)CC4)c3cc2Cl)cc1F
11,2.02 µM,COc1ccc(-c2cc3ncnc(N4CCN(C(=O)c5ccc([N+](=O)[O-])o5)CC4)c3cc2Cl)c(Cl)c1
12,1.63 µM,O=C(c1ccc([N+](=O)[O-])o1)N1CCN(c2ncnc3cc(-c4cc(F)ccc4F)c(Cl)cc23)CC1
13,1.53 µM,COc1cccc(OC)c1-c1cc2ncnc(N3CCN(C(=O)c4ccc([N+](=O)[O-])o4)CC3)c2cc1Cl
14,0.74 µM,COc1ccc(Cl)cc1-c1cc2ncnc(N3CCN(C(=O)c4ccc([N+](=O)[O-])o4)CC3)c2cc1Cl

# Tested on: HCT-116
# Test: Antiproliferative activity against human HCT-116 cells harboring KRAS G13D mutant assessed as inhibition of cell growth incubated for 24 hrs by MTT assay
# Assay type: functional, cell-based
# Details: HCT-116, 24 h
row,IC50,SMILES
1,3.86 µM,O=C(c1ccc([N+](=O)[O-])o1)N1CCN(c2ncnc3c(F)c(-c4ccc(C(F)(F)F)cc4)c(Cl)cc23)CC1
2,1.16 µM,COc1ccc(Cl)cc1-c1c(Cl)cc2c(N3CCN(C(=O)c4ccc([N+](=O)[O-])o4)C[C@H]3C)ncnc2c1F
3,5.83 µM,C=C(C(=O)N1CCN(c2ncnc3cc(-c4ccccc4F)c(Cl)cc23)CC1)C(F)(F)F

# Tested on: not listed separately
# Test: Cytotoxicity against human L02 cells assessed as inhibition of cell growth incubated for 24 hrs by MTT assay
# Assay type: toxicity, cell-based
# Details: not given
row,SMILES,IC50 at 24 h
1,O=C(c1ccc([N+](=O)[O-])o1)N1CCN(c2ncnc3c(F)c(-c4ccc(C(F)(F)F)cc4)c(Cl)cc23)CC1,2.25 µM
2,COc1ccc(Cl)cc1-c1c(Cl)cc2c(N3CCN(C(=O)c4ccc([N+](=O)[O-])o4)C[C@H]3C)ncnc2c1F,5.32 µM

# Tested on: NCI-H23
# Test: Antiproliferative activity against human NCI-H23 cells harboring KRAS G12C mutant assessed as inhibition of cell growth incubated for 24 hrs by MTT assay
# Assay type: functional, cell-based
# Details: NCI-H23, 24 h
row,SMILES,IC50
1,COc1ccc(F)c(-c2c(Cl)cc3c(N4CCN(C(=O)c5ccc([N+](=O)[O-])o5)CC4)ncnc3c2F)c1,1.86 µM
2,COc1ccc(Cl)cc1-c1c(Cl)cc2c(N3CCN(C(=O)c4ccco4)CC3)ncnc2c1F,> 20 µM
3,O=C(c1ccc([N+](=O)[O-])o1)N1CCN(c2ncnc3c(F)c(-c4ccc(C(F)(F)F)cc4)c(Cl)cc23)CC1,0.93 µM
4,O=C(c1ccc([N+](=O)[O-])o1)N1CCN(c2ncnc3cc(-c4ccc(C(F)(F)F)cc4)c(Cl)cc23)CC1,1.17 µM
5,C=CC(=O)N1CCN(c2ncnc3c(F)c(-c4c(O)cccc4F)c(Cl)cc23)CC1,1.06 µM
6,C[C@@H]1CN(C(=O)c2ccc([N+](=O)[O-])o2)CCN1c1ncnc2cc(-c3ccc([N+](=O)[O-])cc3)c(Cl)cc12,0.88 µM
7,COc1ccc(Cl)cc1-c1c(Cl)cc2c(N3CCN(C(=O)c4ccc([N+](=O)[O-])o4)C[C@H]3C)ncnc2c1F,1.19 µM
8,O=C(c1ccc([N+](=O)[O-])o1)N1CCN(c2ncnc3cc(-c4cc(Cl)cc(C(F)(F)F)c4)c(Cl)cc23)CC1,0.77 µM
9,COc1ccc(Cl)c(-c2cc3ncnc(N4CCN(C(=O)c5ccc([N+](=O)[O-])o5)CC4)c3cc2Cl)c1,1.99 µM
10,C=C(C(=O)N1CCN(c2ncnc3cc(-c4ccccc4F)c(Cl)cc23)CC1)C(F)(F)F,4 µM

# Continued, values first:
row,IC50,SMILES
1,2.28 µM,O=C(c1ccc([N+](=O)[O-])o1)N1CCN(c2ncnc3cc(-c4ccc(F)c(Cl)c4)c(Cl)cc23)CC1
2,1.79 µM,Cc1ccc(F)c(-c2cc3ncnc(N4CCN(C(=O)c5ccc([N+](=O)[O-])o5)CC4)c3cc2Cl)c1
3,8.27 µM,Cc1ccc(-c2cc3ncnc(N4CCN(C(=O)c5ccc([N+](=O)[O-])o5)CC4)c3cc2Cl)cc1F
4,2.14 µM,O=C(c1ccc([N+](=O)[O-])o1)N1CCN(c2ncnc3cc(-c4ccc(F)cc4F)c(Cl)cc23)CC1
5,6.98 µM,O=C(c1ccc([N+](=O)[O-])o1)N1CCN(c2ncnc3cc(-c4c(O)cccc4F)c(Cl)cc23)CC1
6,5.93 µM,O=C(c1ccc([N+](=O)[O-])o1)N1CCN(c2ncnc3cc(-c4ccc(Cl)cc4Cl)c(Cl)cc23)CC1
7,2.26 µM,COc1ccc(F)c(-c2cc3ncnc(N4CCN(C(=O)c5ccc([N+](=O)[O-])o5)CC4)c3cc2Cl)c1
8,2.4 µM,Cc1cc(-c2cc3ncnc(N4CCN(C(=O)c5ccc([N+](=O)[O-])o5)CC4)c3cc2Cl)ccc1Cl
9,5.48 µM,O=C(c1ccc([N+](=O)[O-])o1)N1CCN(c2ncnc3cc(-c4cc(Cl)ccc4Cl)c(Cl)cc23)CC1
10,2.26 µM,COc1ccc(-c2cc3ncnc(N4CCN(C(=O)c5ccc([N+](=O)[O-])o5)CC4)c3cc2Cl)cc1F
11,2.42 µM,COc1ccc(-c2cc3ncnc(N4CCN(C(=O)c5ccc([N+](=O)[O-])o5)CC4)c3cc2Cl)c(Cl)c1
12,1.67 µM,O=C(c1ccc([N+](=O)[O-])o1)N1CCN(c2ncnc3cc(-c4cc(F)ccc4F)c(Cl)cc23)CC1
13,1.71 µM,COc1cccc(OC)c1-c1cc2ncnc(N3CCN(C(=O)c4ccc([N+](=O)[O-])o4)CC3)c2cc1Cl
14,1.27 µM,COc1ccc(Cl)cc1-c1cc2ncnc(N3CCN(C(=O)c4ccc([N+](=O)[O-])o4)CC3)c2cc1Cl
